Experimental data reported in paper PMC2477751 (International journal of experimental diabetes research, 2000).
“Also recorded” adds a separate entry of the source. Like-named read-outs stand apart in the source and are kept apart here.

Assays:
[1] = Serum octreotide level (RIA) after subcutaneous injection in neonatal rats; conditions: Sabra, rat, sc
[2] = test system: hypoxia-induced retinal neovascularization; assay: Neonatal rat retinopathy (ROP) model, alternating hypoxia/hyperoxia, histologic scoring of eyes; format: in vivo
Method: We evaluated its effect on retinal neovascularization in vivo, using a neonatal rat retinopathy model. Methods: We used, on alternating days, hypoxia (10% O2) and hyperoxia (50% O2) during the first 14 days of neonatal rats, to induce retinal neovascularization. […] At day 18 the eyes were evaluated for the presence of epiretinal and vitreal hemorrhage, neovascularization and epiretinal proliferation.
Int. Jnl. Experimental Diab. Res., Vol. 1, pp. 39-47 Reprints available directly from the publisher Photocopying permitted by license only (C) 2000 OPA (Overseas Publishers Association) N.V. Published by license under the Harwood Academic Publishers imprint, part of The Gordon and Breach Publishing Group. Printed in Malaysia. […] We evaluated its effect on retinal neo- vascularization in vivo, using a neonatal rat retino- pathy model. Methods: We used, on alternating days, hypoxia (10%O2) and hyperoxia (50%02) during the first 14 days of neonatal rats, to induce retinal neovascu- larization. […] At day 18 the eyes were evaluated for the presence of epiretinal and vitreal hemorrhage, neovasculariza- tion and epiretinal proliferation. […] Keywords: Retinopathy of prematurity, angiogenesis, insulin- like growth factor, growth hormone, neovascularization INTRODUCTION Retinal neovascularization is a common feature of several eye diseases characterized by retinal hypoxia, such as proliferative diabetic retino- pathy (PDR) and retinopathy of prematurity (ROP). While the underlying pathology may be different in these conditions, the neovascular pro- cess itself leads to destruction of normal retina and eventually causes blindness. *Corresponding author. Department of Ophthalmology, Hadassah University Hospital, P. O. Box 12000, Jerusalem 91120, Israel. Tel.: +972-2-677 6927, Fax: +972-2-643 4434, e-maih edward@md2.huji.ac.il 39 40 E. AVERBUKH et al. Growth hormone (GH) and insulin-like growth factor I (IGF-I) have been implicated in the pathogenesis of PDR (Lundbaek et al., 1970; Dills et al., 1991). […] High vitre- ous levels of IGF-I and IGF binding proteins (IGFBPs) were found in patients with neovas- cular eye disease related to diabetes and to other ischemic retinal conditions (Meyer-Schwickerath et al., 1993). In addition, a recent study demon- strated the essential role of GH and IGF-I in the development of retinal neovascularization in the ROP model in mice (Smith et al., 1997). Decades ago, before the advent of lasers, elimination of GH production by pituitary ablation was an accepted therapy for PDR (Bradley, Rees and Fager, 1965). […] METHODS Animals Fifty-six neonatal Sabra rats (provided by the Harlan Laboratories, Jerusalem, Israel) were divided into experimental groups of eight to ten animals from mixed litters, not divided ac- cording to gender. At the age of one day the group with the lactating mother were placed in an incubator with a controlled oxygen con- centration. […] All the animals were maintained and treated in ac- cordance with the Association for Research in Vision and Ophthalmology statement on the use of animals in ophthalmic and vision re- search. Retinal neovascularization was induced by alternating oxygen concentrations as pre- viously described (Reynaud and Dorey, 1994; Penn, Tolman and Lowery, 1993). Briefly, the animals were exposed on alternating days to hypoxia (10% O2-24h) and hyperoxia (50% O2-24h) during their first 14 days, followed by four days in room air. Hypoxia was produced by mixing air with nitrogen, and hyperoxia by mixing air with oxygen. A minimal flow of two liters per minute was maintained. […] At day 18 the rats were anesthetized with ether and sacrificed. The eyes were enu- cleated and placed in formaldehyde. […] These areas are prone to ischemia when the oxygen level is lowered.

[3] = parameters: method as in Bauer et al., 1982; conditions: ref Bauer et al., 1982; cited from earlier work
Description: Int. Jnl. Experimental Diab. Res., Vol. 1, pp. 39-47 Reprints available directly from the publisher Photocopying permitted by license only (C) 2000 OPA (Overseas Publishers Association) N.V. Published by license under the Harwood Academic Publishers imprint, part of The Gordon and Breach Publishing Group. Printed in Malaysia.

[4] = test system: serum growth hormone (GH); assay: Serum rat growth hormone (RIA) after subcutaneous octreotide injection; format: in vivo
[5] = test system: serum insulin-like growth factor I (IGF-I); assay: Serum IGF-I (RIA after acid-methanol extraction) after subcutaneous octreotide injection; format: in vivo, rat
[6] = test system: IGF-I mRNA, GH stimulated hepatocytes; conditions: ref Serri et al., 1992, cited from earlier work
Description: (§1) Int. Jnl. Experimental Diab. […] Printed in Malaysia.

[7] = test system: human retinal endothelial cell (HREC); conditions: HREC stimulated by IGF-I and bFGF, ref Grant et al., 1993b, cited from earlier work
Description: as §1

[8] = stated for both the octreotide-treated and the control groups

SMILES: C[C@@H](O)[C@@H]1NC(=O)[C@H](CCCCN)NC(=O)[C@@H](Cc2c[nH]c3ccccc23)NC(=O)[C@H](Cc2ccccc2)NC(=O)[C@@H](NC(=O)[C@H](N)Cc2ccccc2)CSSC[C@@H](C(=O)N[C@H](CO)[C@@H](C)O)NC1=O [octreotide]
- half-life ([1]; 0.7 μg/g BW): 1.63 h
- level at 9 h ([1]; 20 ug): 26.4 ng/mL
- level at 14 h ([1]; 20 ug): 3.2 ng/mL
- Effect of injections on retinal pathology ([2]; 0.7 μg/g BW s.c. twice daily, Mann-Whitney Rank Sum Test vs saline): no statistically significant effect
- Eyes in which NV was found ([2]; octreotide-treated eyes, day 18 (control 27%)): 35%
- Eyes affected by any of epiretinal and vitreal hemorrhages [2, 8]: ~70%
- Eyes affected by epiretinal or by vitreal hemorrhages, each one of them [2, 8]: approximately 45%
- Eyes affected by PVR ([2]; stated for each group): less than 40%
- Retinal neovascularization ([2]; twice-daily injections, neonatal rat ROP model): not inhibited
- Plasma half-life [3]: 1.5 h
- Serum GH level vs control group ([4]; 9 and 14 hours after injection): returned to baseline; also recorded: comparable
- Decrease of serum GH level compared with saline injected animals ([4]; 2 hours after injection, p = 0.002): 40%
- Serum IGF-I level vs control group ([5]; 2 hours after injection): unchanged; also recorded: similar
- Elevation of serum IGF-I level vs control group ([5]; 9 hours after injection, p 0.06): 19%
- Elevation of serum IGF-I level vs control group ([5]; 14 hours after injection, p = 0.02): 26%
- IGF-I mRNA abundance in cultured GH stimulated hepatocytes ([6]; high concentrations of octreotide (30 and 300 μg/l)): no effect
- IGF-I mRNA levels in cultured GH stimulated hepatocytes ([6]; low octreotide concentrations (0.3 and 3 μg/l)): significantly reduced
- Inhibition of [3H]thymidine incorporation ([7]; octreotide level 1.6 μg/l): 15%
- Inhibition of [3H]thymidine incorporation ([7]; octreotide level 16 μg/l): 35%
- Inhibition of [3H]thymidine incorporation ([7]; octreotide level 164 μg/l): 60%
